Patent US6509163B1, “Methods of screening modulators of mammalian P2X7 purinergic receptors” (Glaxo Group Limited, priority 1997, dated 2003)
Like-named read-outs stand apart in the source and are kept apart here. One block for each compound: values may come before it.

What was measured:
Assay type in all cases: cell-based
P2X7 receptor [1] = target: T1, P2X7 receptor (Rattus norvegicus, UniProt Q64663); assay: Whole-cell recordings of agonist-evoked currents in HEK293 cells transfected with rat P2X7 cDNA (Example 2); details: for agonist effect (evoking inward current): concentration 300 to 1000 μM; for EC50: read-out: EC50 (half-maximal concentration) for current
T1 construct: yielding a construct that encoded the entire P2X7 protein; expressed in transfected cells
T1 sequence (Q64663 1-595): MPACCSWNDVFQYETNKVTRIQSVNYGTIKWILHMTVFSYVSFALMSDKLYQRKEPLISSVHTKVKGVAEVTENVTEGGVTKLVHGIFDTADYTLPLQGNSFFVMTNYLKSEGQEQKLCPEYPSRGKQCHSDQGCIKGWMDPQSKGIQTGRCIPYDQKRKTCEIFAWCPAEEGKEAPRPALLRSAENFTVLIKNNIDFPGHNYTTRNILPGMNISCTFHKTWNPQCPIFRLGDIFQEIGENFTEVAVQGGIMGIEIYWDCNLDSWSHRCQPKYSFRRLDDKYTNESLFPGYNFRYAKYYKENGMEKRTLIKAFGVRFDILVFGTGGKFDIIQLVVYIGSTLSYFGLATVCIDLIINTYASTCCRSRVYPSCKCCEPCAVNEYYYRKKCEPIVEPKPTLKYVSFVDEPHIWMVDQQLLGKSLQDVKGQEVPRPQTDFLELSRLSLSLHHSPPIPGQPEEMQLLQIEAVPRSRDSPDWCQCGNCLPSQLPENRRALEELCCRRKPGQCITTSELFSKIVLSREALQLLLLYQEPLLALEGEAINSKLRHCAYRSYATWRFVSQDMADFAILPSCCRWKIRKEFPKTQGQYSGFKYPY
Experimental: (§1) Whole-cell recordings were obtained at room temperature from HEK293 cells transiently or stably transfected with P2X7 cDNA, from HEK293 cells transiently transfected with P2X7ΔC cDNA, and from J774A.1 cells (American Type Culture Collection, Rockville, Md.). Agonist were applied for periods of 1 to 3 s by a fast-flow U-tube delivery system (Fenwick et al, J. Physiol. (London) 331:577 (1982)). The internal pipette solution was 140 mM cesium-aspartate or potassium-aspartate, 20 mM NaCl, 10 mM EGTA, and 5 mM Hepes: normal external solution was 145 mM NaCl, 2 mM KCl, 2 mM CaCl2, 1 mM MgCl2, 10 mM Hepes, and 12 mM glucose. Low divalent external solution was nominally magnesium-free with 0.3 mM CaCl2. For cells expressing P2X7 receptors and J774 cells, concentration-response curves were constructed in low divalent solution by recording currents in response to 1-s applications of agonist at 8-min intervals with normal external solution present for 6 min before each application. This protocol was necessary to prevent the development of sustained inward currents. Lipofectin was used for transfection (Buell et al, EMBO J. 15:55 (1996)).
Reversal potentals (Erev) were obtained by application of ATP (300 μM) or BzATP (30 μM) while the membrane was held at various potentals or by application of voltage ramps from −120 to 30 or 50 mV. Permeability ratios from (Erev) were calculated by first computing α (=Pna/PK, where P is permeability) for internal (i) and external (o) concentrations [Na]i=20 mM, [Na]o=145 mM, [Ko]=0 mM, and [K]i=140 mM from α={[145/exp(Erev)F/RT −20]}/140 (where F is the Faraday, R is the gas constant, and T is the absolute temperature). Other PK/PNa values, when [X]o=145 mM, [Na]i=20 mM, [K]i=140 mM, and [Na]o=[K]o=[X]i=0 mM, were computed from PK/PNa={[exp (ErevF/RT) (20=140α)}/145. In order of size (FIG. 3C), X was cesium, methylamine, tris(hydroxymethyl)-aminomethane, tetraethylammonium, and N-methyl-D-glucamine. The internal solution also contained 10 mM EGTA and 5 mM Hepes. External solutions also contained 10 mM glucose and normal or low concentrations of divalent cations; pH was maintained at 7.3 with HCl, histidine, or Hepes as required, and the osmolarity of all solutions was 295 to 315.

rP2X7 receptor = target: T2, rP2X7 receptor (Rattus norvegicus, UniProt Q64663); assay: Whole-cell recordings in HEK293 cells transiently transfected with rP2X7 receptors (Example 3)
T2 construct: yielding a construct that encoded the entire P2X7 protein; expressed in transfected cells
T2 sequence (Q64663 1-595): T1 sequence (Q64663 1-595)
Experimental: (§2) Cell culture. HEK293 cells were transiently transfected with cDNA (1 μg/ml) and lipofectin dissolved in Optimem (GIBCO) placed into petri dishes containing four coverslips onto which cells were plated at a density of about 8×10^4/coverslip. Cells were washed 5 h later and normal DMEM applied. Electrophysiological studies or dye uptake measurements were carried out 18-49 h later. For each set of transfections, parallel experiments were performed on HEK cells transfected with cDNA encoding both rP2X7 and hP2X7 receptors.
(§3) Electrophysiological experiments. Whole-cell recordings were made using the EPC9 patch-clamp amplifier and Pulse acquisition programs (HEKA, Lambrecht, Germany). Patch pipettes (5-7 MΩ) contained (mM) CsCl or NaCl 154, EGTA 10, HEPES 5. The normal extracellular solution contained (mM) NaCg 147, KCl2, CaCl2 2, MgCl2 1, HEPES 10 and glucose 12, and the “low divalent” solution had no magnesium and 0.3 mM CaCl2. Agonists were delivered by U-tube delivery system; antagonists, when applied, were present in both superfusion and U-tube. Experiments were carried out at room temperature.

hP2X7 receptor = target: T3, hP2X7 receptor (Homo sapiens, UniProt Q99572); assay: Whole-cell recordings in HEK293 cells transiently transfected with hP2X7 receptors (Example 3)
T3 construct: a clone containing the complete open reading frame of the hP2X7 receptor was constructed; expressed in transfected cells; host or cells: HEK293 (transient), pcDNA3
T3 sequence (Q99572 1-595): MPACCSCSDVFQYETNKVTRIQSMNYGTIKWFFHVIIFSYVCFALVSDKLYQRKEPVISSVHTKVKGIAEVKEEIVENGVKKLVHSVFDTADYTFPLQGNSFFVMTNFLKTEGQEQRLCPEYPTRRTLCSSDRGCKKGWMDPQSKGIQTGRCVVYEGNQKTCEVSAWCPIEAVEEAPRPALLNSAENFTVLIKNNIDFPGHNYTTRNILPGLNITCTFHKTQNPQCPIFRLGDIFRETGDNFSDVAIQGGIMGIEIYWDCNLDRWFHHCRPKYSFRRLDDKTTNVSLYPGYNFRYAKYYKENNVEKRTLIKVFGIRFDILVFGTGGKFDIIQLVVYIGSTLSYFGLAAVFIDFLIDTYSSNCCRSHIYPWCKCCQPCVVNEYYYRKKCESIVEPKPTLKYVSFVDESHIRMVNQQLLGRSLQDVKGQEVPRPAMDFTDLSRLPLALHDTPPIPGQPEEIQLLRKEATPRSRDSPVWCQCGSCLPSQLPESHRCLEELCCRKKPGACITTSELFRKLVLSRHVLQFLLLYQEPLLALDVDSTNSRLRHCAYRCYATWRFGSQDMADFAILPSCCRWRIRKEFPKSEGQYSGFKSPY
Experimental: as §2, §3

P2X7 receptor [2] = target: T1, P2X7 receptor; assay: Whole-cell recordings of agonist-evoked currents in HEK293 cells transfected with rat P2X7 cDNA (Example 2); details: inward currents, brief application (0.5 to 2 s)
J774 cells = assay: Whole-cell recordings of BzATP-evoked currents in J774 macrophage cells; details: three J774 cells; read-out: half-maximal inhibition of currents evoked by 30 μM BzATP
Experimental: as §1

[3] = vs 30 μM BzATP, n=3, read-out: concentration causing half-maximal inhibition of currents
[4] = percentage of value in 1 mM magnesium

- agonist effect (evoking inward current) (P2X7 receptor [1]): ineffective
Compound: O=c1ccn([C@@H]2O[C@H](COP(=O)(O)OP(=O)(O)OP(=O)(O)O)[C@@H](O)[C@H]2O)c(=O)[nH]1 [UTP]

- block of currents evoked by 30 μM BzATP (P2X7 receptor [1]; 100 μM, cells preincubated for 1 to 2 hours, n=5): irreversibly blocked currents
Compound: Nc1ncnc2c1ncn2[C@@H](C=O)O[C@@H](C=O)COP(=O)(O)OP(=O)(O)OP(=O)(O)O [Oxidized ATP]

- agonist order of potency (P2X7 receptor [2]): BzATP>>ATP>2MeSATP>ATP-γ-S>>ADP
Compound: CSc1nc(N)c2ncn([C@@H]3O[C@H](COP(=O)(O)OP(=O)(O)OP(=O)(O)O)[C@@H](O)[C@H]3O)c2n1 [2MeSATP]

- agonist order of potency (P2X7 receptor [2]): BzATP>>ATP>2MeSATP>ATP-γ-S>>ADP
Compound: Nc1ncnc2c1ncn2[C@@H]1O[C@H](COP(=O)(O)OP(=O)(O)O)[C@@H](O)[C@H]1O [ADP]

Continued, compound first:

Compound: Nc1ncnc2c1ncn2[C@@H]1O[C@H](COP(=O)(O)CP(=O)(O)OP(=O)(O)O)[C@@H](O)[C@H]1O [αβ-methylene ATP]
- agonist effect (evoking inward current) (P2X7 receptor [1]): ineffective

Compound: Nc1ncnc2c1ncn2[C@@H]1O[C@H](CO)[C@@H](O)[C@H]1O [adenosine]
- agonist effect (evoking inward current) (P2X7 receptor [1]): ineffective

Compound: Nc1ncnc2c1ncn2[C@@H]1O[C@H](COP(=O)(O)OP(=O)(O)CP(=O)(O)O)[C@@H](O)[C@H]1O [βγ-methylene ATP]
- agonist effect (evoking inward current) (P2X7 receptor [1]): ineffective

Compound: Cc1ccc(C(=O)Nc2ccc(S(=O)(=O)O)c3cc(S(=O)(=O)O)cc(S(=O)(=O)O)c23)cc1NC(=O)c1cccc(NC(=O)Nc2cccc(C(=O)Nc3cc(C(=O)Nc4ccc(S(=O)(=O)O)c5cc(S(=O)(=O)O)cc(S(=O)(=O)O)c45)ccc3C)c2)c1 [suramin]
- IC50 (rP2X7 receptor; [3]): 78 ± 3 µM
- inhibition at 300 µM (P2X7 receptor [1]; read-out: inhibition of currents evoked by 30 μM BzATP): 15 to 38%

Compound: [Mg+2] [magnesium]
- IC50 (rP2X7 receptor; currents evoked by 30 μM BzATP, read-out: concentration of magnesium causing half-maximal inhibition of the current): 780 µM
- increase of currents on removal of external magnesium (rP2X7 receptor; [4]): 420±84%
- IC50 (hP2X7 receptor; currents evoked by 300 μM BzATP, read-out: concentration of magnesium causing half-maximal inhibition of the current): 212 µM
- increase of currents on removal of external magnesium (hP2X7 receptor; [4]): 670±80%

Compound: NC(N)=NC(=O)c1nc(Cl)c(N2CCCCCC2)nc1N [hexamethylene amiloride]
- blocking current evoked by 30 μM BzATP (P2X7 receptor [1]; 100 μM, n=6): ineffective

Compound: Nc1ncnc2c1ncn2[C@@H]1O[C@H](COP(=O)(O)OP(=O)(O)OP(=O)(O)O)[C@@H](O)[C@H]1O [ATP]
- agonist order of potency (P2X7 receptor [2]): BzATP>>ATP>2MeSATP>ATP-γ-S>>ADP
- EC50 (P2X7 receptor [1]; normal solution (2 mM CaCl2, 1 mM MgCl2), n=4): 115 ± 9 µM
- EC50 (P2X7 receptor [1]; zero magnesium, n=7): 85 ± 8 µM
- EC50 at hP2X7 relative to rP2X7 receptor (fold greater) (hP2X7 receptor): about 10 fold

Compound: Cc1nc(N=Nc2ccc(S(=O)(=O)O)cc2S(=O)(=O)O)c(COP(=O)(O)O)c(C=O)c1O [PPADS, pyridoxal 5-phosphate-6-azophenyl 2′4′-disulfonic acid]
- IC50 (J774 cells): 60 ± 9 µM
- IC50 (rP2X7 receptor; [3]): 51 ± 4 µM
- IC50 (P2X7 receptor [1]; four HEK cells, read-out: half-maximal inhibition of currents evoked by 30 μM BzATP): 45 ± 8 µM

Compound: Nc1ncnc2c1ncn2[C@@H]1O[C@H](COP(=O)(O)OP(=O)(O)OP(O)(O)=S)[C@@H](O)[C@H]1O [ATP-γ-S]
- agonist order of potency (P2X7 receptor [2]): BzATP>>ATP>2MeSATP>ATP-γ-S>>ADP
